Source: patent publication US20220125051A1, “PRE-HARVEST DESICCATION METHOD” (SYNGENTA CROP PROTECTION AG, priority 2019, published 2022)

How the values were obtained:
Assay in all cases: Post-emergence efficacy, Method A
Assay type in all cases: in vivo
[1] = test system: Amaranthus palmeri (AMAPA); details: Amaranthus palmeri, post-emergence, 312 h, evaluated after 13 days, Method A, read-out: Control of weed species after post-emergence application, AMAPA (100=total damage to plant; 0=no damage to plant); for pest or weed control at 500 g/ha: Application Rate 500 g/Ha
In short: (§1)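 Visual damage score, 0 (no damage) to 100 (total), taken 13 d after spraying. Pot-grown plants at 14 d post-sowing received an aqueous spray from a 50 g/l acetone/IF50 solution diluted in 0.25% or 1% Empicol ESC70 + 1% ammonium sulphate; glasshouse 24/16 °C, 14 h light, 65% RH, watered twice daily.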

[2] = test system: Chenopodium album (CHEAL); details: Chenopodium album, post-emergence, 312 h, evaluated after 13 days, Method A, read-out: Control of weed species after post-emergence application, CHEAL (100=total damage to plant; 0=no damage to plant); for pest or weed control at 500 g/ha: Application Rate 500 g/Ha
In short: as §1

[3] = test system: Digitaria sanguinalis (DIGSA); details: Digitaria sanguinalis, post-emergence, 312 h, evaluated after 13 days, Method A, read-out: Control of weed species after post-emergence application, DIGSA (100=total damage to plant; 0=no damage to plant); for pest or weed control at 500 g/ha: Application Rate 500 g/Ha
In short: as §1

[4] = test system: Echinochloa crus-galli (ECHCG); details: Echinochloa crus-galli, post-emergence, 312 h, evaluated after 13 days, Method A, read-out: Control of weed species after post-emergence application, ECHCG (100=total damage to plant; 0=no damage to plant); for pest or weed control at 500 g/ha: Application Rate 500 g/Ha
In short: as §1

Eleusine indica (ELEIN) = details: Eleusine indica, post-emergence, 312 h, evaluated after 13 days, Method A, read-out: Control of weed species after post-emergence application, ELEIN (100=total damage to plant; 0=no damage to plant); for pest or weed control at 500 g/ha: Application Rate 500 g/Ha
In short: as §1

[5] = test system: Euphorbia heterophylla (EPHHL); details: Euphorbia heterophylla, post-emergence, 312 h, evaluated after 13 days, Method A, read-out: Control of weed species after post-emergence application, EPHHL (100=total damage to plant; 0=no damage to plant); for pest or weed control at 500 g/ha: Application Rate 500 g/Ha
In short: as §1

[6] = test system: Ipomoea hederacea (IPOHE); details: Ipomoea hederacea, post-emergence, 312 h, evaluated after 13 days, Method A, read-out: Control of weed species after post-emergence application, IPOHE (100=total damage to plant; 0=no damage to plant); for pest or weed control at 500 g/ha: Application Rate 500 g/Ha
In short: as §1

Lolium perenne (LOLPE) = details: Lolium perenne, post-emergence, 312 h, evaluated after 13 days, Method A, read-out: Control of weed species after post-emergence application, LOLPE (100=total damage to plant; 0=no damage to plant); for pest or weed control at 500 g/ha: Application Rate 500 g/Ha
In short: as §1

Setaria faberi (SETFA) = details: Setaria faberi, post-emergence, 312 h, evaluated after 13 days, Method A, read-out: Control of weed species after post-emergence application, SETFA (100=total damage to plant; 0=no damage to plant); for pest or weed control at 500 g/ha: Application Rate 500 g/Ha
In short: as §1

SMILES: O=S(=O)([O-])CCC[n+]1ccc(-c2nccc(CO)n2)cn1 [Compound A154]
- pest or weed control at 125 g/ha ([1]; Application Rate 125 g/Ha): 40%
- pest or weed control at 125 g/ha ([2]; Application Rate 125 g/Ha): 50%
- pest or weed control at 125 g/ha ([3]; Application Rate 125 g/Ha): 20%
- pest or weed control at 125 g/ha ([4]; Application Rate 125 g/Ha): 20%
- pest or weed control at 125 g/ha (Eleusine indica (ELEIN); Application Rate 125 g/Ha): 10%
- pest or weed control at 125 g/ha ([5]; Application Rate 125 g/Ha): 70%
- pest or weed control at 125 g/ha ([6]; Application Rate 125 g/Ha): 20%
- pest or weed control at 125 g/ha (Lolium perenne (LOLPE); Application Rate 125 g/Ha): 10%
- pest or weed control at 125 g/ha (Setaria faberi (SETFA); Application Rate 125 g/Ha): 30%

SMILES: Cc1ccc(-c2cc[n+](CCS(=O)(=O)[O-])nc2)nc1 [Compound A155]
- pest or weed control at 500 g/ha [1]: 20%
- pest or weed control at 500 g/ha [2]: 10%
- pest or weed control at 500 g/ha [3]: 50%
- pest or weed control at 500 g/ha [4]: 40%
- pest or weed control at 500 g/ha (Eleusine indica (ELEIN)): 30%
- pest or weed control at 500 g/ha [5]: 30%
- pest or weed control at 500 g/ha [6]: 20%
- pest or weed control at 500 g/ha (Lolium perenne (LOLPE)): 50%
- pest or weed control at 500 g/ha (Setaria faberi (SETFA)): 40%

SMILES: Cc1cc(Cl)cnc1-c1cc[n+](CCC(=O)O)nc1 [Compound A156]
- pest or weed control at 500 g/ha [1]: 30%
- pest or weed control at 500 g/ha [2]: 50%
- pest or weed control at 500 g/ha [3]: 20%
- pest or weed control at 500 g/ha [4]: 10%
- pest or weed control at 500 g/ha (Eleusine indica (ELEIN)): 20%
- pest or weed control at 500 g/ha [5]: 50%
- pest or weed control at 500 g/ha [6]: 10%
- pest or weed control at 500 g/ha (Lolium perenne (LOLPE)): 0%
- pest or weed control at 500 g/ha (Setaria faberi (SETFA)): 20%

SMILES: O=C(O)CC[n+]1ccc(-c2ccncc2F)cn1 [Compound A157]
- pest or weed control at 500 g/ha [1]: 100%
- pest or weed control at 500 g/ha [2]: 100%
- pest or weed control at 500 g/ha [3]: 70%
- pest or weed control at 500 g/ha [4]: 80%
- pest or weed control at 500 g/ha (Eleusine indica (ELEIN)): 90%
- pest or weed control at 500 g/ha [5]: 80%
- pest or weed control at 500 g/ha [6]: 60%
- pest or weed control at 500 g/ha (Lolium perenne (LOLPE)): 30%
- pest or weed control at 500 g/ha (Setaria faberi (SETFA)): 80%

SMILES: Nc1nccc(-c2cc[n+](CCS(=O)(=O)[O-])nc2)n1 [Compound A158]
- pest or weed control at 500 g/ha [1]: 100%
- pest or weed control at 500 g/ha [2]: 80%
- pest or weed control at 500 g/ha [3]: 30%
- pest or weed control at 500 g/ha [4]: 20%
- pest or weed control at 500 g/ha (Eleusine indica (ELEIN)): 50%
- pest or weed control at 500 g/ha [5]: 80%
- pest or weed control at 500 g/ha [6]: 30%
- pest or weed control at 500 g/ha (Lolium perenne (LOLPE)): 30%
- pest or weed control at 500 g/ha (Setaria faberi (SETFA)): 40%

SMILES: O=S(=O)(O)CC[n+]1ccc(-c2ccncc2F)cn1 [Compound A159]
- pest or weed control at 500 g/ha [1]: 100%
- pest or weed control at 500 g/ha [2]: 100%
- pest or weed control at 500 g/ha [3]: 30%
- pest or weed control at 500 g/ha [4]: 70%
- pest or weed control at 500 g/ha (Eleusine indica (ELEIN)): 50%
- pest or weed control at 500 g/ha [5]: 80%
- pest or weed control at 500 g/ha [6]: 50%
- pest or weed control at 500 g/ha (Lolium perenne (LOLPE)): 40%
- pest or weed control at 500 g/ha (Setaria faberi (SETFA)): 60%

SMILES: Nc1nccc(-c2cc[n+](CCC(=O)O)nc2)n1 [Compound A160]
- pest or weed control at 500 g/ha [1]: 100%
- pest or weed control at 500 g/ha [2]: 100%
- pest or weed control at 500 g/ha [3]: 70%
- pest or weed control at 500 g/ha [4]: 70%
- pest or weed control at 500 g/ha (Eleusine indica (ELEIN)): 80%
- pest or weed control at 500 g/ha [5]: 90%
- pest or weed control at 500 g/ha [6]: 70%
- pest or weed control at 500 g/ha (Lolium perenne (LOLPE)): 70%
- pest or weed control at 500 g/ha (Setaria faberi (SETFA)): 90%

SMILES: O=C(O)CC[n+]1ccc(-c2ncc(Cl)c(=O)[nH]2)cn1 [Compound A161, 3-[4-(5-chloro-6-oxo-1H-pyrimidin-2-yl)pyridazin-1-ium-1-yl]propanoic acid 2,2,2-trifluoroacetate]
- pest or weed control at 500 g/ha [1]: 30%
- pest or weed control at 500 g/ha [2]: 70%
- pest or weed control at 500 g/ha [3]: 20%
- pest or weed control at 500 g/ha [4]: 20%
- pest or weed control at 500 g/ha (Eleusine indica (ELEIN)): 20%
- pest or weed control at 500 g/ha [5]: 50%
- pest or weed control at 500 g/ha [6]: 20%
- pest or weed control at 500 g/ha (Lolium perenne (LOLPE)): 10%
- pest or weed control at 500 g/ha (Setaria faberi (SETFA)): 10%

SMILES: O=C(O)CC[n+]1ccc(-c2ncc(CO)cn2)cn1 [Compound A162]
- pest or weed control at 500 g/ha [1]: 100%
- pest or weed control at 500 g/ha [2]: 70%
- pest or weed control at 500 g/ha [3]: 70%
- pest or weed control at 500 g/ha [4]: 90%
- pest or weed control at 500 g/ha (Eleusine indica (ELEIN)): 80%
- pest or weed control at 500 g/ha [5]: 80%
- pest or weed control at 500 g/ha [6]: 10%
- pest or weed control at 500 g/ha (Lolium perenne (LOLPE)): 90%
- pest or weed control at 500 g/ha (Setaria faberi (SETFA)): 70%
